In PubChem BioAssay (NCI):
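Grown in 96-well plates, cells were treated for 48 hours with each compound at five concentrations. Insufficient inhibition: endpoint recorded as highest concentration tested. TGI denotes the concentration required for complete inhibition of growth.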

Key:
Assay in all cases: NCI anticancer screen, dose series, 48 h
U251 CNS = system: U251 CNS
HT29 colon = system: HT29 colon
KM12 colon = system: KM12 colon
SF-295 CNS = system: SF-295 CNS
NCI-H522 lung = system: NCI-H522 lung
HCT-116 colon = system: HCT-116 colon
IGROV1 ovarian = system: IGROV1 ovarian
TK-10 renal = system: TK-10 renal
MOLT-4 leukemia = system: MOLT-4 leukemia
SK-MEL-28 melanoma = system: SK-MEL-28 melanoma

SMILES	TGI (U251 CNS)	TGI (HT29 colon)	TGI (KM12 colon)	TGI (SF-295 CNS)	TGI (NCI-H522 lung)	TGI (HCT-116 colon)	TGI (IGROV1 ovarian)	TGI (TK-10 renal)	TGI (MOLT-4 leukemia)	TGI (SK-MEL-28 melanoma)
COc1ccc(C2=Nn3c(C)nnc3S/C2=C\c2ccc(-c3ccc([N+](=O)[O-])cc3)o2)cc1	45.8 µM	43 µM	40.1 µM	> 100 µM	23.8 µM	26.1 µM	42.7 µM	34.3 µM	18 µM	
COc1ccc(-c2nc3ccccc3c(=O)[nH]2)cc1OC	80.5 µM	> 100 µM	> 100 µM	> 100 µM		> 100 µM	81.5 µM		> 100 µM	
O=C(CN1CCOCC1)c1ccc2c(c1)oc(=O)n2CCN1CCCCC1	> 100 µM	> 100 µM	> 100 µM	> 100 µM		> 100 µM	> 100 µM	> 100 µM	> 100 µM	> 100 µM
O=C(O)c1cc2sc(C(=O)O)cc2s1	> 100 µM	> 100 µM	> 100 µM	> 100 µM	> 100 µM	> 100 µM	> 100 µM	> 100 µM	> 100 µM	
C=C(C)[C@H]1C=C[C@@H](OC(C)=O)[C@@]2(COC(C)=O)[C@H](OC(=O)CCC)[C@H]3[C@@H](OC(C)=O)[C@@H](C)C[C@]3(O)C(=O)[C@@](C)(OC(C)=O)[C@H]12	> 100 µM	> 100 µM	> 100 µM		> 100 µM	> 100 µM	> 100 µM	> 100 µM	> 100 µM	> 100 µM
C/C(=N\Nc1nc2ccccc2[nH]1)c1ccc2ccccc2n1	14.3 µM		14.3 µM	8.29 µM	8.85 µM	7.48 µM	8.1 µM	13.2 µM	2.64 µM	23 µM
CSc1cc(Cl)c(C)cc1S(=O)(=O)NC(=O)NNc1cnc2ccccc2n1	> 100 µM	> 100 µM	> 100 µM	> 100 µM	> 100 µM	> 100 µM	> 100 µM		56.8 µM	> 100 µM
Nc1nc(=O)n(C2CC(O)C(CO)O2)c2nc(-c3ccc(-c4ccccc4)cc3)cnc12 (stereo not drawn)	42.6 µM	> 100 µM		> 100 µM	48.9 µM	> 100 µM	> 100 µM	> 100 µM	76 µM	
CSc1nc(NC2OC(CO)C(O)C(O)C2O)c(N)c(=O)[nH]1 (stereo not drawn)	> 100 µM	> 100 µM	> 100 µM	> 100 µM	> 100 µM	> 100 µM	> 100 µM		> 100 µM	> 100 µM
NC(=O)NC(=O)c1cccc(C(=O)NC(N)=O)n1	> 100 µM	> 100 µM	> 100 µM	> 100 µM	> 100 µM	> 100 µM		> 100 µM	> 100 µM	> 100 µM
CCN(CC)C(=O)N1CN(c2ccccc2)C2(CCN(CCCC3(c4ccc(F)cc4)OCCO3)CC2)C1=O	30.2 µM		31.1 µM	41.3 µM	30.2 µM	23.9 µM		38.7 µM	34.9 µM	26.7 µM
O=C(O)Cc1ccc(-n2nnc3c(=O)[nH][nH]c(=O)c32)cc1	> 100 µM	> 100 µM	> 100 µM	> 100 µM		> 100 µM		> 100 µM	> 100 µM	> 100 µM
